# Assay results from the NIST ThermoML archive (doi:10.1016/j.tca.2014.09.007).
# Numbers after ± are expanded uncertainties.
# Columns and labels:
# [1] = DTA
# [2] = Molar enthalpy of transition or fusion; settings: Crystal; DSC
compound,measurement,setting,value
CC(C)(Sc1cc(C(C)(C)C)c(O)c(C(C)(C)C)c1)Sc1cc(C(C)(C)C)c(O)c(C(C)(C)C)c1 [probucol],Normal melting temperature,[1]; Crystal,125.90 ± 0.5 °C
same,Glass transition temperature,[1]; Glass,25.00 ± 4 °C
same,Molar enthalpy of transition or fusion,[2],7.65 ± 0.222 kcal/mol
